This note sets out measurements from paper PMC6316846, “Pretargeted Imaging with Gallium-68—Improving the Binding Capability by Increasing the Number of Tetrazine Motifs” (Pharmaceuticals, 2018).

Where two headings read alike, the source gives them in different places.

Data set [1] is described as follows: Distribution coefficient (logD), octanol/PBS. The class given is physicochemical. As to conditions: mean ± SD (n = 3); for LogD (pH 7.4): ^68Ga-labelled compound. How it is done: To determine the distribution of the ^68Ga-labelled conjugates between an organic (octanol) and aqueous (PBS) layer, aliquots (50 µL) of the tracers (~5 µM) were diluted in 1 mL of octanol/PBS (1:1, v/v). The mixture was vortexed at 1400 rpm (MS 3 basic vortexer, IKA, Staufen, Germany) for 15 min at RT followed by centrifugation for 2 min at 4500 rpm. Subsequently, aliquots (50 µL) of both layers were collected and measured in the gamma counter (Wizard2 3”, Perkin Elmer, Waltham, MA, USA) followed by logD calculation (n = 3, six replicates).

Data set [2] in a line: Serum protein binding, Sephadex G-50 size exclusion. The class given is in vitro ADME. As to conditions: ^68Ga-labelled compound, human serum, 37 °C, mean ± SD (n = 3). How it is done: Serum protein binding was determined using Sephadex G-50 (GE Healthcare Vienna, Austria) size exclusion chromatography. Aliquots (50 µL, n = 3) of the radioligand solution (~10 µM) were incubated in 450 µL freshly prepared human serum or 450 µL PBS (controls) and were kept at 37 °C. After 1, 2, and 4 h aliquots (25 µL) were directly transferred to the column (MicroSpin G-50, GE Healthcare) and after centrifugation (2 min, 2000 rcf) the column containing the free conjugate and the eluate containing the protein-bound conjugate were measured in the gamma counter. The percent of activity in both fractions was calculated thereafter.
(In general: In gel filtration, larger molecules generally elute earlier.)

Another data set concerns the target immobilized RTX-TCO. Nature of the data set: Competitive binding assay on immobilized RTX-TCO. The conditions noted are these: non-labelled conjugate as competitor, 30 min RT. As to the method:
Binding on immobilized RTX-TCO was conducted using high protein-binding capacity Nunc MaxiSorp™ 96-well plates (Thermo Fisher Scientific, Vienna, Austria). Coating was performed by adding 20 µg of antibody (RTX or RTX-TCO) dissolved in 100 µL coating buffer (0.1 M NaHCO3, pH 8.5) to each well and after 2 h incubation at RT the plate was left at 4 °C overnight both under the exclusion of light. After removal of the coating solution 200 µL of blocking buffer (1% BSA in PBS) was added, left for 1 h at room temperature and subsequently each well was washed twice with 200 µL binding buffer (0.1% BSA in PBS). Hereafter, the radioligand was mixed with increasing concentrations of the competitor (=non-labelled conjugate), diluted in binding buffer and 100 µL of the mixture was added to each well. After 30 min at RT the supernatant was removed, each well was washed three times with 150 µL binding buffer and the coating film was finally detached with 2 × 150 µL of hot (80 °C) 2 N sodium hydroxide (NaOH). The NaOH fraction was taken for gamma counter measurement to determine the percentage of binding in contrast to the standard followed by non-liner curve fitting using Origin 6.1 software (Origin Inc., Northampton, MA, USA) to calculate the apparent half maximum inhibitory concentration of the competitor (n = 3, 4 replicates).

For data set [3], the system named is CD20-expressing Raji cells. Description: FACS analysis of antibody binding to Raji cells. The conditions noted are these: antibody at 20 µM, APC-labelled anti-human IgG Fc secondary antibody. The class given is cell-based. How it is done: The humanoid lymphoblast-like CD20-expressing B-lymphocyte cells (Raji cells) were purchased from American Type Culture Collection (ATCC, Manassas, VA, USA). Flow cytometric analysis of CD20 expression was evaluated on (Raji cells) adjusted to 5 × 10^5 cells/sample in DMEM (including 10% FCS, 1% Pen/Strep). Cells were incubated with FC-Block (containing CD16/CD32 (1:200), e-Bioscience, Thermo Fisher Scientific, Vienna, Austria) for 15 min at 4 °C in order to avoid signals from non-specific binding. The following antibodies were used: RTX-TCO and RTX, both at 20 µM (f. c.). As secondary antibody a APC-labelled anti-human IgG Fc (clone: HP6017; BioLedgend, San Diego, CA, USA) at a dilution of 1:100 was used. Antibodies were incubated for at least 15 min at 4 °C. FACS analysis was performed on BD LSRFortessa™ (Cell Analyzer, BD Bioscience, San Jose, CA, USA). As internal control samples unstained or stained with either primary or secondary antibodies were analyzed. FACS-data was analyzed by FlowJo v10 software.
In general terms: In flow cytometry, cells or beads pass a laser one at a time.

Setting [4] is: radioligand [^68Ga]Ga-Tz-dimer, read-out: Competitor concentration reducing binding of [^68Ga]Ga-Tz-dimer by 50%.
[5] abbreviates: radioligand [^68Ga]Ga-Tz-monomer, read-out: Competitor concentration reducing binding of [^68Ga]Ga-Tz-monomer by 50%.
[6] abbreviates: radioligand [^68Ga]Ga-Tz-trimer, read-out: Competitor concentration reducing binding of [^68Ga]Ga-Tz-trimer by 50%.

The term logD denotes the decadic logarithm of the distribution of all forms, ionised or not, between an organic phase and buffer at a given pH. A high value points to a more lipophilic compound. Usually fraction unbound stands for the share of the substance not bound to proteins or other matrix.

Turning to `C/C1=C/C(=O)N(O)CCCC(NC(=O)CCOCCOCCOCCOCCOCCC(=O)NCc2ccc(-c3nncnn3)cc2)C(=O)OCC/C(C)=C\C(=O)N(O)CCCC(NC(=O)CCOCCOCCOCCOCCOCCC(=O)NCc2ccc(-c3nncnn3)cc2)C(=O)OCC/C(C)=C\C(=O)N(O)CCCC(NC(=O)CCOCCOCCOCCOCCOCCC(=O)NCc2ccc(-c3nncnn3)cc2)C(=O)OCC1` (centres unmarked) [Tz-trimer, FSC-(PEG5-Tz)3], the “LogD (pH 7.4)” value in data set [1] is −1.00 ± 0.06. Besides, the “Protein Binding (%) 1 h” value in data set [2] (1 h) came to 70.5 ± 0.7%. Moreover, in data set [2] (2 h), the “Protein Binding (%) 2 h” value is on record as 69.5 ± 0.4%. The “Protein Binding (%) 4 h” value in data set [2] (4 h) was determined as 67.8 ± 0.4%. Besides, the IC50 at immobilized RTX-TCO (setting [4]) was 0.092 ± 0.015 µM; at immobilized RTX-TCO (setting [5]) it was 0.1 ± 0.01 µM; at immobilized RTX-TCO (setting [6]) it was 0.147 ± 0.049 µM.

On to “TCO-modified RTX: anti-CD20 monoclonal antibody rituximab modified with trans-cyclooctene (TCO-NHS ester)”, for which the “Target specificity by FACS” value in data set [3] is “high target specificity”.

`CC(=O)NC1CCCN(O)C(=O)/C=C(/C)CCOC(=O)C(NC(=O)CCOCCOCCOCCOCCOCCC(=O)NCc2ccc(-c3nncnn3)cc2)CCCN(O)C(=O)/C=C(/C)CCOC(=O)C(NC(=O)CCOCCOCCOCCOCCOCCC(=O)NCc2ccc(-c3nncnn3)cc2)CCCN(O)C(=O)/C=C(/C)CCOC1=O` (centres unmarked) [Tz-dimer, MAFC-(PEG5-Tz)2]: the “LogD (pH 7.4)” value in data set [1] was −1.35 ± 0.01. The “Protein Binding (%) 1 h” value in data set [2] (1 h) is 67.0 ± 2.4%. In data set [2] (2 h), the “Protein Binding (%) 2 h” value is recorded as 65.9 ± 1.3%. For the same compound, the “Protein Binding (%) 4 h” value in data set [2] (4 h) was 68.4 ± 0.3%. Also, the IC50 at immobilized RTX-TCO (setting [4]) is 0.095 ± 0.025 µM; on immobilized RTX-TCO (setting [5]), 0.112 ± 0.006 µM; at immobilized RTX-TCO (setting [6]) it was 0.258 ± 0.06 µM.

Regarding `CC(=O)NC1CCCN(O)C(=O)/C=C(/C)CCOC(=O)C(NC(=O)CCOCCOCCOCCOCCOCCC(=O)NCc2ccc(-c3nncnn3)cc2)CCCN(O)C(=O)/C=C(/C)CCOC(=O)C(NC(C)=O)CCCN(O)C(=O)/C=C(/C)CCOC1=O` (centres unmarked) [Tz-monomer, DAFC-PEG5-Tz], the logD in data set [1] (octanol/PBS (1:1, v/v), pH 7.4, ^68Ga-labelled compound) was -1.64 ± 0.02. The unbound share (fraction unbound) at 1 h in data set [2] (1 h) was 0.382. The compound further showed an unbound share (fraction unbound) at 2 h in data set [2] (2 h) of 0.362. In data set [2] (4 h), this compound gave an unbound share (fraction unbound) at 4 h of 0.36. Besides, the IC50 at immobilized RTX-TCO (setting [4]) stood at 0.865 ± 0.263 µM; on immobilized RTX-TCO (setting [5]), 0.486 ± 0.052 µM; on immobilized RTX-TCO (setting [6]), 2.99 ± 1.66 µM.

As to “rituximab [non-modified RTX, reference compound]”, the “Target specificity by FACS” value in data set [3] is listed as “high target specificity”.
